A short description of data set [1]: decrease of insulin promoter-GFP reporter – imaging, high-content screening, mouse beta cells (AID 1628). The format is functional. The settings on record: MIN6.
A short description of data set [2]: MIN6 cell viability loss – mouse insulinoma, cytotoxicity control, dose response (AID 2122).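 Also: confirmatory high-throughput counterscreen run to flag cytotoxic compounds.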 Type of data set: functional.
A further data set addresses Cytochrome P450 2C9 (Homo sapiens, UniProt P11712).
In data set [3] the target is Peroxisome proliferator-activated receptor gamma/Nuclear receptor coactivator 2 (Homo sapiens, UniProt P37231). Nature of the data set: TR-FRET dose response biochemical High Throughput Screening assay for agonists of the steroid receptor coactivator 2 (SRC-2) recruitment by the peroxisome proliferator-activated receptor gamma (PPAR gamma): non-selective agonists. [Related pubchem assays: 1297, 1032 ]. Type of data set: functional.

Another data set concerns the target Troponin, cardiac muscle (Homo sapiens, UniProt P19429+P45379+P63316). The data set is described as follows: Fluorescence-based biochemical high throughput dose response assay for activators of the calcium sensitivity of cardiac Regulated Thin Filaments (RTF). [Related pubchem assays (depositor defined):AID493008, AID493018, AID504382, AID504383]. Type of data set: protein-complex assay.

The target in data set [4] is Peroxisome proliferator-activated receptor gamma/Nuclear receptor coactivator 3 (Homo sapiens, UniProt P37231). The data set is described as follows: TR-FRET dose response biochemical High Throughput Screening assay for agonists of the steroid receptor coactivator 3 (SRC-3) recruitment by the peroxisome proliferator-activated receptor gamma (PPAR gamma): non-selective agonists. [Related pubchem assays: 1301 (Confirmation screen.), 1048 (Primary screen.)]. Type of data set: functional. For orientation: In TR-FRET formats the signal depends on donor and acceptor labels being close together.

In data set [5] the target is Peroxisome proliferator-activated receptor gamma/Nuclear receptor coactivator 1 (Homo sapiens, UniProt P37231). The data set is described as follows: TR-FRET dose response biochemical High Throughput Screening assay for agonists of the steroid receptor coactivator 1 (SRC-1) recruitment by the peroxisome proliferator-activated receptor gamma (PPAR gamma): non-selective agonists. [Related pubchem assays (depositor defined):AID1300, AID1808, AID504735, AID631]. Type of data set: protein assay.

The subject of data set [6] is HEK293. Nature of the data set: cells. The format is functional, cell-based. The settings on record: Homo sapiens.
Data set [7] deals with HEK293. The data set is described as follows: inhibition of NOD1-driven NF-kB reporter – cell-based, luminescence, uHTS, primary screen (AID 1578). To be noted: Homo sapiens. Type of data set: functional.
The nature of data set [8]: Luminescence Cell-Based Dose Confirmation HTS to Identify Inhibitors of Platelet Dense Granule Release. [Related pubchem assays: 1663 (Primary HTS), 1678 (Summary of Project)]. The format is functional.
For data set [9], the system named is HEK293. The data set is described as follows: NOD2 signaling inhibitors in MDP-stimulated cells, cell-based, uHTS, luminescence (AID 2001). The format is functional. The settings on record: Homo sapiens.
Data set [10] relates to HEK293. Nature of the data set: cells. The format is functional, cell-based. To be noted: Homo sapiens. The source holds these as a separate data set.
The nature of data set [11]: general cell-killing toxicity readout – plate reader, dry powder samples, cytotoxicity control for PAX8 inhibitor project, dose response (AID 743021). The format is functional, cell-based.
Data set [12] concerns HEK293. The data set is described as follows: cells. The format is functional, cell-based. The settings on record: Homo sapiens. This is another data set of the same source.
Data set [13] concerns the target T1, Carboxy-terminal domain RNA polymerase II polypeptide A small phosphatase 1 (Homo sapiens, UniProt Q9GZU7).
T1 sequence (Q9GZU7 whole entry): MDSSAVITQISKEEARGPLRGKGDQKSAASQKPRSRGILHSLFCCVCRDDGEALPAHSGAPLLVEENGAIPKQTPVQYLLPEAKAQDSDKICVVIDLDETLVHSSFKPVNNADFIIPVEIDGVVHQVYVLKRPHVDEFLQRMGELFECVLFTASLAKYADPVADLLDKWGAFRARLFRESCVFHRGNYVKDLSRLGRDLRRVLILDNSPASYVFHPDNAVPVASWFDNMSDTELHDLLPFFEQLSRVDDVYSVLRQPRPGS
Nature of the data set: CTDSP1 inhibitors, concentration-response, biochemical, absorbance readout, ultra-high-throughput screen actives (AID 540297). The format is functional.

Data set [14] has as its target Nucleotide-binding oligomerization domain-containing protein 2 (Homo sapiens, UniProt Q9HC29). The data set is described as follows: inhibition of NOD2-driven NF-kB reporter – cell-based, luminescence, uHTS, HEK293 (AID 1566). Type of data set: functional.
Data set [15] deals with BJ. Nature of the data set: cells. The format is functional, cell-based. To be noted: Homo sapiens.
A short description of data set [16]: Luminescence Cell-Based Dose Response HTS to Identify Inhibitors of 5'UTR Stem-Loop Driven Prion Protein mRNA Translation in H4 Neuroglioblastoma Cells. [Related pubchem assays: 1827 (Project Summary), 1813 (Primary HTS)]. The format is functional.
In data set [17] the test system is BJ. The data set is described as follows: BJ-TERT fibroblast viability loss – cell-based, RAS-independent, luminescence, dose response (AID 1933). Type of data set: functional. The settings on record: Homo sapiens.
A short description of data set [18]: DRD fibroblast viability loss – cell-based, non-viral oncogenic, luminescence, dose response (AID 1934). The format is functional. The settings on record: Homo sapiens.
Data set [19] in a line: alpha-synuclein stem-loop luciferase translation blockers – H4 neuroglioma cells, luminescence, confirmation (AID 1988). Type of data set: functional, cell-based.
The nature of data set [20]: luciferase reporter signal suppression in cells – H4 neuroglioma cells, luminescence, dose response (AID 1990). Type of data set: functional, cell-based. (In general: Reporter assays use an easily measured gene product as a stand-in for the process of interest.)
Data set [21] concerns the target T2, Alkaline phosphatase, tissue-nonspecific isozyme (Homo sapiens, UniProt P05186).
T2 sequence (P05186 whole entry): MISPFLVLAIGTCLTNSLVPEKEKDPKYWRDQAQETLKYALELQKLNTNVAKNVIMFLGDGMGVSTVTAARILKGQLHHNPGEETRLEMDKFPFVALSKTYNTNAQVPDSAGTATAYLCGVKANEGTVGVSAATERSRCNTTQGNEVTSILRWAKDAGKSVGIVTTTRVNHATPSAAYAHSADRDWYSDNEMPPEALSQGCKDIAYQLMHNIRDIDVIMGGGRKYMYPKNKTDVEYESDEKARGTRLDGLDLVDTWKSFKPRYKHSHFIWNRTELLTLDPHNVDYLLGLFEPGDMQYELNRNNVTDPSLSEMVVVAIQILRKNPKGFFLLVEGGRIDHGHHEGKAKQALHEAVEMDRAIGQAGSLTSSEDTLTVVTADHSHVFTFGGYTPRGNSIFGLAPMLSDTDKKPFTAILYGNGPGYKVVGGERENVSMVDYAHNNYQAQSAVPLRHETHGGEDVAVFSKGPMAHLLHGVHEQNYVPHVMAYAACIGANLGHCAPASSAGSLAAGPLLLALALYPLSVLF
The data set is described as follows: potency against alkaline phosphatase TNAP – biochemical, luminescent, dose response, SAR follow-up (AID 1056).

The target in data set [22] is Glyceraldehyde-3-phosphate dehydrogenase (Homo sapiens, UniProt P04406).

Active and inactive are the calls of the source.

Consider `Cc1nc2ccccn2c1C(=O)N=Nc1c(O)n(CCC(C)C)c2ccccc12`, for which the IC50 in [1] is 1.67 µM (active); in data set [2], 2.72 µM (active).

For `COc1ccc2c(c1[N+](=O)[O-])CCC/C2=N/OC(=O)c1cccc2ccccc12`, at Cytochrome P450 2C9, the half-maximal activity concentration (AC50) entry is “inconclusive”.

On to `COC(=O)c1sc(N2C(=O)C(O)=C(C(=O)c3ccc(C)o3)C2c2ccc(F)cc2)nc1C` (stereo unspecified), for which the EC50 in data set [3] was 32.3 µM (not active); on Troponin, cardiac muscle it was > 71.4 µM (inactive); in data set [4], > 79.4 µM (not active); in data set [5], 41.9 µM (inactive).

Take `COc1ccc(N(Cc2cc3cc(OC)ccc3nc2O)S(=O)(=O)c2ccc(NC(C)=O)cc2)cc1`: the IC50 with HEK293 [6] is 7.22 µM (active); in the data set on HEK293 [9], > 20 µM (inactive); in the data set on HEK293 [10], > 20 µM (inactive); with HEK293 [12], > 20 µM (inactive). Besides, the figures for the EC50 (in the data set with HEK293 [7]; in [8]) were > 20 µM (inactive) and > 112 µM (not active), respectively. Also, the AC50 in data set [11] is 49.1 µM (active).

For `S=c1[nH]nc(-c2ccc(Cl)cc2)n1-c1ccc2c(c1)OCCO2`, the EC50 at Troponin, cardiac muscle was > 71.5 µM (inactive).

Turning to `Cc1cc(C(=O)Nc2ccccc2C(=O)O)ccc1NC(=O)COc1ccccc1Cl`, the IC50 was > 20 µM (inactive) with HEK293 [6]; > 20 µM (inactive) in the data set with HEK293 [9]; > 20 µM (inactive) with HEK293 [10]; 6.31 µM (active) in [13]; > 20 µM (inactive) with HEK293 [12]. The values for the EC50 (in the data set with HEK293 [7]; in data set [14]) were > 20 µM (inactive) and 5.38 µM (active), respectively.

For `CC1CCCC(C)N1C(=O)c1cc(-c2ccc(Cl)c(Cl)c2)on1` (stereo unspecified), the AC50 entry at Cytochrome P450 2C9 is recorded as “inconclusive”.

On to `c1ccc2c3nc[nH]c(N4CCCC4)c-3nc2c1`, for which the IC50 in data set [1] was 3.72 µM (active); in data set [2] it was 3.1 µM (active).

With `COc1ccc(CCNC(=O)c2ccc3c(c2)N(Cc2ccccc2)CCS3)cc1OC`, the IC50 was 8.65 µM (active) in the data set with HEK293 [6], 7.53 µM (active) with HEK293 [9], > 20 µM (inactive) with HEK293 [10] and > 20 µM (inactive) in the data set with HEK293 [12]. Moreover, the EC50 in the data set with HEK293 [7] is 6.99 µM (active); in data set [14], > 20 µM (inactive).

Take `Oc1[nH]nc(C(F)(F)F)c1/C=N/Cc1ccccc1Cl`: the EC50 at Troponin, cardiac muscle is > 71.4 µM (inactive).

`O=C1C=C(c2ccccc2)C[C@H](c2cccs2)[C@H]1n1nnc([N+](=O)[O-])n1`: the half-maximal effective concentration (EC50) is 1.11 µM (active) with BJ [15]; 17.5 µM (active) in [16]; 9.57 µM (active) with HEK293 [7]; 11 µM (active) in [14]; 0.681 µM (active) in the data set on BJ [17]; 0.668 µM (active) in data set [18]. Further, the figures for the 50% effective concentration (EC50) in [19] and in data set [20] were 9.23 µM (active) and 6.52 µM (active), respectively. Also, the IC50 was > 20 µM (inactive) with HEK293 [6], 9.37 µM (active) with HEK293 [9], > 20 µM (inactive) with HEK293 [10] and > 20 µM (inactive) in the data set with HEK293 [12].

With `O=S(=O)(Nc1cccnc1)c1ccccc1OC(F)(F)F`, the IC50 in data set [21] was > 100 µM (inactive); in data set [22], > 100 µM (not active).

A word on the IC50: it is the concentration at which inhibition is half-maximal. The AC50 is the midpoint of the concentration-response curve, whichever way the signal moves. The term EC50 denotes the concentration giving half of the maximal effect.

For the origin of these results see ChEMBL document CHEMBL1201862, “PubChem BioAssay data set” (2004).
